Laboratory results taken from article PMC8199331, “Baicalein Ameliorates Streptococcus suis-Induced Infection In Vitro and In Vivo” (International Journal of Molecular Sciences, 2021).

Molecular target: SLY (suilysin) (Streptococcus suis, UniProt Q55996)
Assay: biochemical

Sequence of SLY (suilysin) (Q55996 28-497 limits assumed): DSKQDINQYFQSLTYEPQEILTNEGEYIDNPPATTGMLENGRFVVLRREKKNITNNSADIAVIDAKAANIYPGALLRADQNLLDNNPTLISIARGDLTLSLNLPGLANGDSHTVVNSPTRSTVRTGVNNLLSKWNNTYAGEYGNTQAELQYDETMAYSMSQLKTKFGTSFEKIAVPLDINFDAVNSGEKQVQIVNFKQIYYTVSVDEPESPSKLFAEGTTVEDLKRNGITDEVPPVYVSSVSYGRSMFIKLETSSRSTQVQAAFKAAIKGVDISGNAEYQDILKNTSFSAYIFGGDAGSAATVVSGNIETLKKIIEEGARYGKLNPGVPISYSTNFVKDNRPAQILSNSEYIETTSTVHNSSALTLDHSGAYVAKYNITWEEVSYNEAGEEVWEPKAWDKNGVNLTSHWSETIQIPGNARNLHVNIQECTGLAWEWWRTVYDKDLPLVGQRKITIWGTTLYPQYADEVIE

Question: Which Kd does the source give for `O=c1cc(-c2ccccc2)oc2cc(O)c(O)c(O)c12` [Baicalein] here?
Answer: Its Kd is 865 nM.
